The text below walks through data of US5214047A, “Tetracyclic quinazoline derivatives, effective as antiarrythmic agents” (priority 1987, dated 1993).

This experiment relates to QT interval. In words: QT interval prolongation (ECG, class III action) in anesthetized guinea pigs. Type of experiment: in vivo, Pirbright white guinea pigs. The settings on record: for ED (20%): Cavia porcellus, read-out: Prolongation of the QT interval ED20%; for Potency relative to that of d-sotalol = 1.0: QT prolongation, ED20%. The protocol: The action of the novel substances has been tested as follows:
The experimental animals used were male and female Pirbright white guinea pigs weighing 300-500 g. 1.5 g/kg urethane i.p. were used for anesthesia. The substances were administered intravenously. The extremity lead II was recorded to measure the ECG conduction times and the heart rate. The measured variables were the QT and PQ intervals and the heart rate. 4-6 animals were used for each dose. The criterion for a class III action was an increase in the QT interval compared with the values before administration of the substance. A PQ increase and a large decrease in the heart rate were used as exclusion criteria. The ED20% is calculated from the linear relation between log dose (mg/kg) of the substance and the relative prolongation of the QT interval (Δ%).

[1] abbreviates: guinea pigs, urethane anesthesia, intravenous, dose for 20% QT prolongation calculated from log dose (mg/kg) vs relative QT prolongation.

Counter-ions that a name gives are not always drawn. Like-named read-outs stand apart in the source and are kept apart here.

As for `Cc1ccc(C23CCCN2c2ccccc2C2=NCCN23)cc1` (stereo not shown) [Example 1, 2,3,5,6,7,8-Hexahydro-5-(4-methylphenyl)imidazo[1,2-c]pyrrolo[1,2-a]quinazoline], the ED (20%) under setting [1] is 1 mg/kg. In addition, the “Potency relative to that of d-sotalol = 1.0” value (“Potency relative to that” below) (guinea pigs, intravenous) was determined as 3.6.

As for `Clc1ccc(C23CCCN2c2ccccc2C2=NCCN23)cc1` (stereo not shown) [Example 2], the ED (20%) (iv) was determined as 1.1 mg/kg. Further, the “Potency relative to that” value (guinea pigs, intravenous) was found to be 3.3.

Regarding `Fc1ccc(C23CCCN2c2ccccc2C2=NCCN23)cc1` (stereo not shown) [Example 4, 5-(4-Fluorophenyl)-2,3,5,6,7,8-hexahydroimidazo[1,2-c]pyrrolo[1,2-a]quinazoline], the ED (20%) under setting [1] was 0.21 mg/kg. Moreover, the “Potency relative to that” value (guinea pigs, intravenous) worked out at 17.

Regarding `COc1cc2c(cc1OC)N1CCCC1(c1ccccc1)N1CCN=C21` (stereo not shown) [Example 5, 2,3,5,6,7,8-Hexahydro-11,12-dimethoxy-5-phenylimidazo[1,2-c]pyrrolo[1,2-a]quinazoline], the ED (20%) under setting [1] is 1 mg/kg. Moreover, for the setting “guinea pigs, intravenous”, the “Potency relative to that” value is 3.5.

As for `COc1ccc(C23CCCN2c2ccccc2C2=NCCN23)cc1` (stereo not shown) [Example 8], under setting [1], the ED (20%) is 0.61 mg/kg. Besides, for the setting “guinea pigs, intravenous”, the “Potency relative to that” value came to 6.0.

In the case of `Clc1ccc(C23CCCN2c2ccccc2C2=NCCN23)cc1Cl` (stereo not shown) [Example 9], the ED (20%) under setting [1] is 1.5 mg/kg. Moreover, the “Potency relative to that” value (guinea pigs, intravenous) came out at 2.4.

Take `Clc1ccc2c(c1)N1CCCC1(c1ccccc1)N1CCN=C21` (stereo not shown) [Example 11, 11-Chloro-2,3,5,6,7,8-hexahydro-5-phenylimidazo[1,2-c]pyrrolo[1,2-a]quinazoline]: under setting [1], the ED (20%) was 0.4 mg/kg. In addition, the “Potency relative to that” value (guinea pigs, intravenous) amounted to 9.0.

Consider `Clc1ccc(C23CCCN2c2ccccc2C2=NCCN23)c(Cl)c1` (stereo not shown) [Example 13, 5-(2,4-Dichlorophenyl)-2,3,5,6,7,8-hexahydroimidazo[1,2-c]pyrrolo[1,2-a]quinazoline hydrochloride], for which the ED (20%) under setting [1] was 0.99 mg/kg. Besides, for the setting “guinea pigs, intravenous”, the “Potency relative to that” value turned out to be 3.7.

As for `Fc1ccc(C23CCCN2c2cc(Cl)ccc2C2=NCCN23)cc1` (stereo not shown) [Example 15, 11-Chloro-5-(4-fluorophenyl)-2,3,5,6,7,8-hexahydroimidazo[1,2-c]pyrrolo[1,2-a]quinazoline hydrochloride], the ED (20%) under setting [1] is 0.43 mg/kg. Further, the “Potency relative to that” value (guinea pigs, intravenous) is 8.5.

On to `Clc1ccc(C23CCCN2c2ccccc2C2=NCCN23)s1` (stereo not shown) [Example 19, 5-(2-(5-Chlorothienyl))-2,3,5,6,7,8-hexahydroimidazo[1,2-c]pyrrolo[1,2-a]quinazoline hydrochloride], for which the ED (20%) under setting [1] was 1.4 mg/kg. For the same compound, where the note is “guinea pigs, intravenous”, the “Potency relative to that” value amounted to 2.6.

For the compound `O=[N+]([O-])c1ccc(C23CCCN2c2ccccc2C2=NCCN23)cc1` (stereo not shown) [Example 21, 2,3,5,6,7,8-Hexahydro-5-(4-nitrophenyl)imidazo[1,2-c]pyrrolo[1,2-a]quinazoline hydrochloride], the ED (20%) under setting [1] is 0.46 mg/kg. Under “guinea pigs, intravenous”, the “Potency relative to that” value turned out to be 8.0.

In the case of `c1ccc(C23CCCN2c2ccccc2C2=NC4CCCCC4N23)cc1` (stereo not shown) [Example 22, 2,3,5,6,7,8-Hexahydro-2,3-tetramethylene-5-phenylimidazo[1,2-c]pyrrolo[1,2-a]quinazoline], the ED (20%) (iv) turned out to be 0.56 mg/kg. Where the note is “guinea pigs, intravenous”, the “Potency relative to that” value is on record as 6.5.

Take `CC1CN=C2c3ccccc3N3CCCC3(c3ccccc3)N21` (stereo not shown) [Example 24, hydrochloride]: the ED (20%) under setting [1] is 0.29 mg/kg. The “Potency relative to that” value (guinea pigs, intravenous) was found to be 12.

Turning to `c1csc(C23CCCN2c2ccccc2C2=NCCCN23)c1` (stereo not shown) [Example 25], the ED (20%) under setting [1] was 0.58 mg/kg. Moreover, the “Potency relative to that” value (guinea pigs, intravenous) worked out at 6.2.

With `Clc1ccc(C23CCCN2c2ccccc2C2=NCCCN23)cc1` (stereo not shown) [Example 26, 6-(4-Chlorophenyl)-2,3,6,7,8,9-hexahydro-2H-pyrimido[1,2-c]pyrrolo[1,2-a]quinazoline], the ED (20%) under setting [1] was 1.5 mg/kg. Moreover, the “Potency relative to that” value (guinea pigs, intravenous) is recorded as 2.4.

As to `Fc1ccc(C23CCCN2c2ccccc2C2=NCCCN23)cc1` (stereo not shown) [Example 27, 6-(4-Fluorophenyl)-2,3,5,6,7,8-hexahydro-2H-pyrimido[1,2-c]pyrrolo[1,2-a]quinazoline], the ED (20%) under setting [1] is 0.42 mg/kg. Further, the “Potency relative to that” value (guinea pigs, intravenous) was 8.7.

As to `Clc1ccc(C23CCCN2c2ccccc2C2=NCCCN23)cc1Cl` (stereo not shown) [Example 28, 6-(3,4-Dichlorophenyl)-2,3,5,6,7,8-hexahydro-2H-pyrimido[1,2-c]pyrrolo[1,2-a]quinazoline], under setting [1], the ED (20%) is 0.94 mg/kg. Also, the “Potency relative to that” value (guinea pigs, intravenous) stood at 3.9.

In the case of `Clc1ccc2c(c1)C1=NCCCN1C1(c3ccccc3)CCCN21` (stereo not shown) [Example 29, 13-Chloro-2,3,5,6,7,8-hexahydro-6-phenyl-2H-pyrimido[1,2-c]pyrrolo[1,2-a]quinazoline hydrochloride], under setting [1], the ED (20%) was 0.55 mg/kg. Also, under “guinea pigs, intravenous”, the “Potency relative to that” value is on record as 6.6.

For `Fc1ccc(C23CCCN2c2ccc(Cl)cc2C2=NCCCN23)cc1` (stereo not shown) [Example 30, 13-Chloro-6-(4-fluorophenyl)-2,3,5,6,7,8-hexahydro-2H-pyrimido[1,2-c]pyrrolo[1,2-a]quinazoline], the ED (20%) under setting [1] was 1 mg/kg. Moreover, for the setting “guinea pigs, intravenous”, the “Potency relative to that” value came to 3.6.

Consider `O=[N+]([O-])c1cccc(C23CCCN2c2ccccc2C2=NCCCN23)c1` (stereo not shown) [Example 31, 2,3,5,6,7,8-Hexahydro-6-(3-nitrophenyl)-2H-pyrimido[1,2-c]pyrrolo[1,2-a]quinazoline], for which, under setting [1], the ED (20%) is 0.56 mg/kg. The “Potency relative to that” value (guinea pigs, intravenous) is recorded as 6.5.

Consider `Clc1ccc(C23CCCN2c2ccccc2C2=NCCCN23)s1` (stereo not shown) [Example 33, 6-(2-(5-Chlorothienyl))-2,3,5,6,7,8-hexahydro-2H-pyrimido[1,2-c]pyrrolo[1,2-a]quinazoline], for which the ED (20%) under setting [1] was 1.5 mg/kg. In addition, the “Potency relative to that” value (guinea pigs, intravenous) came to 2.4.

Regarding `O=[N+]([O-])c1ccc(C23CCCN2c2ccccc2C2=NCCCN23)cc1` (stereo not shown) [Example 34, 2,3,5,6,7,8-Hexahydro-6-(4-nitrophenyl)-2H-pyrimido[1,2-c]pyrrolo[1,2-a]quinazoline], the ED (20%) under setting [1] is 0.61 mg/kg. Where the note is “guinea pigs, intravenous”, the “Potency relative to that” value is given as 6.0.

Regarding `COc1ccc(C23CCCN2c2ccccc2C2=NCCCN23)cc1` (stereo not shown) [Example 35, 2,3,5,6,7,8-Hexahydro-6-(4-methoxyphenyl)-2H-pyrimido[1,2-c]pyrrolo[1,2-a]quinazoline hydrochloride], the ED (20%) under setting [1] was 0.63 mg/kg. Moreover, where the note is “guinea pigs, intravenous”, the “Potency relative to that” value turned out to be 5.7.

Consider `Clc1ccc2c(c1)N1CCCC1(c1ccccc1)N1CCCN=C21` (stereo not shown) [Example 37, 12-Chloro-2,3,5,6,7,8-hexahydro-6-phenyl-2H-pyrimido[1,2-c]pyrrolo[1,2-a]quinazoline hydrochloride], for which, under setting [1], the ED (20%) is 0.69 mg/kg. The “Potency relative to that” value (guinea pigs, intravenous) is 5.3.

Turning to `Fc1ccc(C23CCCN2c2cc(Cl)ccc2C2=NCCCN23)cc1` (stereo not shown) [Example 38, 2-Chloro-6-(4-fluorophenyl)-2,3,5,6,7,8-hexahydro-2H-pyrimido[1,2-c]pyrrolo[1,2-a]quinazoline hydrochloride], the ED (20%) under setting [1] was 0.83 mg/kg. Moreover, under “guinea pigs, intravenous”, the “Potency relative to that” value is reported as 4.4.

On to `CC1(C)CN=C2c3ccccc3N3CCCC3(c3ccccc3)N2C1` (stereo not shown) [Example 41, 2,3,5,6,7,8-Hexahydro-3,3-dimethyl-6-phenyl-2H-pyrimido[1,2-c]pyrrolo[1,2-a]quinazoline hydrochloride], for which the ED (20%) under setting [1] was 0.46 mg/kg. Besides, the “Potency relative to that” value (guinea pigs, intravenous) was found to be 7.8.

As for `CC1(C)CN=C2c3ccccc3N3CCCC3(c3ccc([N+](=O)[O-])cc3)N2C1` (stereo not shown) [Example 42, 2,3,5,6,7,8-Hexahydro-3,3-dimethyl-6-(4-nitrophenyl)-2H-pyrimido[1,2-c]pyrrolo[1,2-a]quinazoline hydrochloride], under setting [1], the ED (20%) is 0.78 mg/kg. Also, the “Potency relative to that” value (guinea pigs, intravenous) is 4.7.

Turning to `CC1(C)CN=C2c3ccccc3N3CCCC3(c3ccccc3)N21` (stereo not shown) [Example 43, 2,3,5,6,7,8-Hexahydro-3,3-dimethyl-5-phenylimidazo[1,2-c]pyrrolo[1,2-a]quinazoline hydrochloride], under setting [1], the ED (20%) was 0.6 mg/kg. Further, the “Potency relative to that” value (guinea pigs, intravenous) came out at 6.1.

In the case of `CC1(C)CCN=C2c3ccccc3N3CCCC3(c3ccccc3)N21` (stereo not shown) [Example 44, 2,3,5,6,7,8-Hexahydro-4,4-dimethyl-6-phenyl-2H-pyrimido[1,2-c]pyrrolo[1,2-a]quinazoline hydrochloride], under setting [1], the ED (20%) is 0.49 mg/kg. Under “guinea pigs, intravenous”, the “Potency relative to that” value worked out at 7.4.

With `CC1(C)CN=C2c3ccccc3N3CCCC3(c3ccc(F)cc3)N21` (stereo not shown) [Example 45, hydrochloride], the ED (20%) under setting [1] is 0.59 mg/kg. Further, the “Potency relative to that” value (guinea pigs, intravenous) was found to be 6.2.

In the case of `CC1(C)CN=C2c3ccccc3N3CCCC3(c3ccc([N+](=O)[O-])cc3)N21` (stereo not shown) [Example 46, 2,3,5,6,7,8-Hexahydro-3,3-dimethyl-5-(4-nitrophenyl)imidazo[1,2-c]pyrrolo[1,2-a]quinazoline hydrochloride], the ED (20%) under setting [1] was 0.55 mg/kg. Also, the “Potency relative to that” value (guinea pigs, intravenous) was found to be 6.7.

Consider `CC1(C)CCN=C2c3ccccc3N3CCCC3(c3ccc([N+](=O)[O-])cc3)N21` (stereo not shown) [Example 47, 2,3,5,6,7,8-Hexahydro-4,4-dimethyl-6-(4-nitrophenyl)-2H-pyrimido[1,2-c]pyrrolo[1,2-a]quinazoline hydrochloride], for which, under setting [1], the ED (20%) was 0.52 mg/kg. The “Potency relative to that” value (guinea pigs, intravenous) is reported as 7.0.
